Test systems include OVCAR-5 ovarian; MOLT-4 leukemia; HT29 colon; SK-MEL-5 melanoma; UO-31 renal; ACHN renal; SK-OV-3 ovarian; NCI-H522 lung; DU-145 prostate.
Common to all, as to experiment: NCI tumour cell line growth inhibition, 48 h

Molecules are shown by their SMILES.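 Following 48 hours of exposure in 96-well plates, responses at five concentrations were used to interpolate endpoints linearly. At the GI50, growth is halved. The concentration for full growth arrest is given as TGI.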 Where only a bound is given, the exact number is not on record here.

Turning to `CC1=CC2CC(C)C1(C)CCc1ccoc12` (configuration not stated), the TGI in the experiment with OVCAR-5 ovarian, in the experiment on MOLT-4 leukemia, in the experiment on HT29 colon, in the experiment with SK-MEL-5 melanoma, in the experiment with UO-31 renal and with ACHN renal was more than 100 µM each time. The compound also yielded a TGI in the experiment with SK-OV-3 ovarian of more than 100 µM.
Take `Cc1cc2c(cc1Br)C1(C)CCC(C)C1(C)O2` (configuration not stated): the TGI with OVCAR-5 ovarian is more than 100 µM; in the experiment on MOLT-4 leukemia, 35.6 µM; in the experiment with HT29 colon it was more than 100 µM; in the experiment with SK-MEL-5 melanoma, 80.1 µM; in the experiment with UO-31 renal, more than 100 µM; with ACHN renal, more than 100 µM. This compound also returned a TGI in the experiment with SK-OV-3 ovarian of more than 100 µM.
Regarding `COc1cc2c(c(OC)c1OC)-c1ccc(SC)c(=O)cc1C(CC(=O)Oc1cccc(C#N)c1)C2` (configuration not stated), the TGI in the experiment on OVCAR-5 ovarian was more than 100 µM; with MOLT-4 leukemia, more than 100 µM; in the experiment with HT29 colon, 0.796 µM; with SK-MEL-5 melanoma, 40.8 µM; with UO-31 renal, more than 100 µM; in the experiment with ACHN renal, more than 100 µM. In addition, the TGI in the experiment on SK-OV-3 ovarian was more than 100 µM.
On to `CC(=O)O[C@H]1CC[C@@]2(C)C(=CC[C@@H]3C2CC[C@]2(C)Nc4[nH]ncc4CC32)C1` (some centres not stated), for which the TGI with OVCAR-5 ovarian was more than 100 µM; in the experiment with MOLT-4 leukemia, 35.8 µM; in the experiment with HT29 colon, 30.6 µM; in the experiment on SK-MEL-5 melanoma, 42.5 µM; in the experiment with UO-31 renal, more than 100 µM; with ACHN renal it was more than 100 µM. The compound also came in with a TGI in the experiment on SK-OV-3 ovarian of more than 100 µM.
As for `CCC[CH2][Sn]1([CH2]CCC)[O]C(=O)CN=Cc2ccccc2[O]1`, the GI50 is 0.0349 µM in the experiment with NCI-H522 lung; 1.63 µM in the experiment with OVCAR-5 ovarian; 0.212 µM in the experiment on MOLT-4 leukemia; 1.08 µM in the experiment with HT29 colon; 1.49 µM in the experiment with SK-MEL-5 melanoma; 0.512 µM in the experiment on UO-31 renal. Moreover, the GI50 in the experiment with ACHN renal is 0.323 µM; in the experiment on SK-OV-3 ovarian, 0.922 µM. In addition, the TGI in the experiment on NCI-H522 lung is 0.173 µM; in the experiment on OVCAR-5 ovarian it was 2.98 µM; in the experiment with MOLT-4 leukemia it was 0.75 µM; in the experiment on HT29 colon, 2.34 µM; in the experiment with SK-MEL-5 melanoma it was more than 100 µM; in the experiment with UO-31 renal, 1.77 µM. For the same compound, the TGI with ACHN renal is 1.1 µM; in the experiment with SK-OV-3 ovarian, 2.18 µM.
As for `CN(CCN(C)C(=O)CCOS(C)(=O)=O)C(=O)CCOS(C)(=O)=O`, the TGI with NCI-H522 lung, with OVCAR-5 ovarian, in the experiment with MOLT-4 leukemia, in the experiment on HT29 colon, with SK-MEL-5 melanoma and in the experiment with ACHN renal was more than 100 µM throughout. Besides, in the experiment with SK-OV-3 ovarian, the TGI is more than 100 µM.
Turning to `Cc1c(O)c(=O)ccn1CCO`, the TGI in the experiment with NCI-H522 lung, with OVCAR-5 ovarian, in the experiment with MOLT-4 leukemia, in the experiment with HT29 colon, with SK-MEL-5 melanoma and with UO-31 renal was more than 100 µM throughout. For the same compound, the TGI with ACHN renal and in the experiment on SK-OV-3 ovarian was more than 100 µM in each case.
Regarding `COc1ccc(C(O)/C(=C/n2ccnc2)c2ccccc2)cc1OC` (configuration not stated), the TGI in the experiment with OVCAR-5 ovarian, with MOLT-4 leukemia, in the experiment on HT29 colon, in the experiment with SK-MEL-5 melanoma, with UO-31 renal and in the experiment with ACHN renal was more than 100 µM each time. Further, in the experiment with SK-OV-3 ovarian, the TGI is more than 100 µM.
For `Clc1cc(Cl)cc(Nc2nc3ccccc3nc2-c2cccs2)c1`, the TGI is more than 100 µM with OVCAR-5 ovarian; more than 100 µM in the experiment on MOLT-4 leukemia; 26.9 µM with HT29 colon; more than 100 µM in the experiment on UO-31 renal; 60.3 µM in the experiment with ACHN renal; 71.1 µM in the experiment with SK-OV-3 ovarian.
In the case of `C=CCN(CC=C)CC(C(C)=O)C(c1ccccc1)c1c(O)c2ccccc2oc1=O` (configuration not stated), the TGI with NCI-H522 lung, in the experiment with OVCAR-5 ovarian, in the experiment with MOLT-4 leukemia, in the experiment on HT29 colon, in the experiment with SK-MEL-5 melanoma and in the experiment with UO-31 renal was more than 100 µM in each case. Also, the TGI with ACHN renal and in the experiment with SK-OV-3 ovarian was more than 100 µM throughout.
Turning to `C[Si]12OCCCN(CCO1)CCO2`, the TGI in the experiment with NCI-H522 lung, in the experiment with OVCAR-5 ovarian, in the experiment with MOLT-4 leukemia, in the experiment on HT29 colon, with SK-MEL-5 melanoma and in the experiment with UO-31 renal was more than 100 µM in each case. The TGI in the experiment on ACHN renal and with SK-OV-3 ovarian was more than 100 µM in each case.
Regarding `COc1ccccc1NC(=O)C1=C(C)NC(C)=C(C(=O)Nc2ccccc2OC)C1c1cccc2c1OCO2`, the TGI with OVCAR-5 ovarian, in the experiment on MOLT-4 leukemia, with HT29 colon, in the experiment with SK-MEL-5 melanoma, in the experiment with UO-31 renal and in the experiment on ACHN renal was more than 100 µM throughout. Besides, the TGI with SK-OV-3 ovarian was more than 100 µM.
`O=CN1CCN(C=S)CC1`: the TGI with NCI-H522 lung, with OVCAR-5 ovarian, in the experiment on MOLT-4 leukemia, in the experiment with HT29 colon, with SK-MEL-5 melanoma and in the experiment with UO-31 renal was more than 100 µM throughout. The TGI with ACHN renal and with SK-OV-3 ovarian was more than 100 µM each time.
For `CNC(=O)OCc1[nH]ccc2c(C)c3nc4ccc(OC)cc4c3cc12`, the TGI was more than 20.7 µM in the experiment on NCI-H522 lung; more than 100 µM in the experiment with OVCAR-5 ovarian; 3.89 µM in the experiment with MOLT-4 leukemia; more than 100 µM with HT29 colon; 12.8 µM with SK-MEL-5 melanoma; more than 53.9 µM in the experiment on UO-31 renal. For the same compound, the TGI in the experiment on ACHN renal was 18 µM; in the experiment with SK-OV-3 ovarian, more than 100 µM.
With `COc1ccccc1NC(=O)CC(=O)NNCC(=O)Nc1nnc(-c2ccccc2)o1`, the TGI in the experiment with NCI-H522 lung, with OVCAR-5 ovarian, in the experiment with MOLT-4 leukemia, in the experiment with HT29 colon, with SK-MEL-5 melanoma and in the experiment on UO-31 renal was more than 100 µM each time. The TGI in the experiment on ACHN renal and with SK-OV-3 ovarian was more than 100 µM each time.
For `CCOC(=O)c1cnc2cc3cccccc3n2c1=O`, the TGI with OVCAR-5 ovarian, in the experiment with MOLT-4 leukemia, in the experiment with HT29 colon, in the experiment with UO-31 renal and in the experiment on ACHN renal was more than 100 µM each time.
For `O=C(O)CCCNS(=O)(=O)c1ccc2ccccc2c1`, the TGI with NCI-H522 lung, with OVCAR-5 ovarian, in the experiment with MOLT-4 leukemia, in the experiment with HT29 colon, with SK-MEL-5 melanoma and in the experiment with UO-31 renal was more than 100 µM throughout. For the same compound, the TGI with ACHN renal and in the experiment on SK-OV-3 ovarian was more than 100 µM each time.
For the compound `COC(=O)C1=Cc2c(cc(OC)c(OC)c2OC)[C@H](c2ccc(OC)c(OC)c2OC)C1C(=O)OC` (some centres not stated), the TGI in the experiment with NCI-H522 lung, in the experiment with OVCAR-5 ovarian, in the experiment on MOLT-4 leukemia, with HT29 colon, with SK-MEL-5 melanoma and in the experiment on UO-31 renal was more than 100 µM throughout. The TGI with ACHN renal and in the experiment on SK-OV-3 ovarian was more than 100 µM each time.
With `COc1ccc2c(c1)CCCC1C3=NCCC3(C)CSC21` (configuration not stated), the TGI in the experiment with NCI-H522 lung, in the experiment with MOLT-4 leukemia, with HT29 colon, with SK-MEL-5 melanoma and in the experiment on SK-OV-3 ovarian was more than 100 µM in each case.
`CC1CC2(CCC1OCc1ccccc1)OCCO2` (configuration not stated): the TGI in the experiment on NCI-H522 lung, in the experiment on MOLT-4 leukemia, with HT29 colon, in the experiment on SK-MEL-5 melanoma, in the experiment with UO-31 renal and with SK-OV-3 ovarian was more than 100 µM each time.
`O=C(O)c1ccc(C2C3C=CC(C3)C2[N+](=O)[O-])cc1` (configuration not stated): the TGI in the experiment on NCI-H522 lung, in the experiment on MOLT-4 leukemia, in the experiment with HT29 colon, with SK-MEL-5 melanoma, in the experiment with UO-31 renal and in the experiment on SK-OV-3 ovarian was more than 100 µM throughout.
In the case of `CCOC(=O)[C@H]1Nc2ccc(Cl)cc2[C@H]2c3ccccc3O[C@H]21`, the TGI in the experiment with NCI-H522 lung, in the experiment on OVCAR-5 ovarian, in the experiment with MOLT-4 leukemia, in the experiment on HT29 colon, in the experiment on SK-MEL-5 melanoma and in the experiment on UO-31 renal was more than 100 µM in each case. Also, in the experiment on ACHN renal, the TGI is more than 100 µM.
As for `CCOC(=O)C(=O)Nc1ccc(Cl)c(C(F)(F)F)c1`, the TGI in the experiment with NCI-H522 lung, with OVCAR-5 ovarian, in the experiment on MOLT-4 leukemia, with HT29 colon, with SK-MEL-5 melanoma and in the experiment with UO-31 renal was more than 100 µM each time. Moreover, the TGI in the experiment with ACHN renal and with SK-OV-3 ovarian was more than 100 µM throughout.
In the case of `NC(=O)c1c2c(cc3c(=O)c4ccccc4[nH]c13)CCCC2`, the TGI was more than 100 µM in the experiment on NCI-H522 lung; more than 100 µM in the experiment with OVCAR-5 ovarian; more than 80.7 µM in the experiment on MOLT-4 leukemia; more than 100 µM with HT29 colon; more than 100 µM in the experiment with SK-MEL-5 melanoma; more than 100 µM with UO-31 renal. The TGI with ACHN renal and in the experiment on SK-OV-3 ovarian was more than 100 µM each time.
As for `COc1cc(OC)cc(-c2cncn2-c2ccc(-c3nc4cc(OC)cc(OC)c4s3)cc2)c1`, the GI50 in the experiment on NCI-H522 lung was 2.49 µM; in the experiment on OVCAR-5 ovarian, more than 100 µM; in the experiment with SK-MEL-5 melanoma it was 3.29 µM; with DU-145 prostate, more than 100 µM; in the experiment with ACHN renal it was more than 100 µM; with SK-OV-3 ovarian it was 4.69 µM. The TGI in the experiment with NCI-H522 lung, in the experiment on OVCAR-5 ovarian, with SK-MEL-5 melanoma, in the experiment on DU-145 prostate, in the experiment on ACHN renal and in the experiment with SK-OV-3 ovarian was more than 100 µM each time.

Source of the values: PubChem BioAssay (NCI).
